Reference: patent US20030215888A1, “Androgen receptor overexpressing skeletal myoblasts” (Pfizer Inc., priority 2002, published 2003)
Like-named read-outs stand apart in the source and are kept apart here.

Experiments:
[1] = system: C2C12 cells; conditions: C2C12, 100 nM DHT
Experimental: (§1) Each cell sample was pelleted by low-speed centrifugation and resuspended in 0.5 ml phosphate buffered saline containing 100 micrograms/ml ribonuclease A and 20 microgram/ml propidium iodide for 30 minutes at room temperature.

[2] = system: C2hAR57 cells; conditions: C2hAR57, 100 nM DHT
Experimental: as §1

## C[C@]12CCC(=O)C[C@@H]1CC[C@@H]1[C@@H]2CC[C@]2(C)[C@@H](O)CC[C@@H]12 [DHT, dihydrotestosterone]
[1]
  effect on fraction of cells at each stage of the cell cycle: unaffected
[1]; 24 h
  Percentage of cells in G2-M: 15.6 ± 1.2%
  Percentage of cells in GO-G1: 40.3 ± 0.8%
  Percentage of cells in S: 45.3 ± 1.1%
[1]; 48 h
  Percentage of cells in G2-M: 15.8 ± 0.7%
  Percentage of cells in GO-G1: 38.0 ± 0.6%
  Percentage of cells in S: 46.2 ± 0.7%
[2]; 24 h
  Percentage of cells in G2-M: 14.3 ± 0.4 %
  Percentage of cells in GO-G1: 54.5 ± 0.7 %
  Percentage of cells in S: 31.2 ± 0.6 %
[2]; 48 h
  Percentage of cells in G2-M: 15.1 ± 1.1 %
  Percentage of cells in GO-G1: 51.2 ± 2.8 %
  Percentage of cells in S: 33.7 ± 3.2 %
